Experimental data: patent US10766940B2, “Brain penetrant amylin receptor based peptides for Alzheimer's disease” (The Governors of the University of Alberta, priority 2016, dated 2020)
Residues, ends and D or L forms follow the SMILES beside them.

What was measured:
[1] = Ex vivo brain imaging of peptide fragments after ip injection, wild-type mice; format: in vivo, mouse
Experimental: For ex vivo imaging experiments and peptide brain uptake, age matched 6-month-old wild-type littermate (C57BL/6 background) mice were used. […] After 2 hours the mice were then sacrificed to collect their brains, and imaged using the Kodak imager as described above, but with an exposure time of 3 min per image for NIRF image.
For ex vivo histological studies, brains were excised, embedded in OCT, then sliced into 20-μm slices, co-stained with DAPI in mounting medium.
Mice were injected with a single dose and then sacrificed, and the brains were extracted after 2 hours from injection. Fluorescence in brains was quantified as previously described.

TgCRND8 AD mouse model = test: Morris Water Maze, chronic icv infusion of AC253; format: in vivo
Experimental: Age-matched, wild-type littermate (C57BL/6 background) male or female mice were used. […] Heterozygous CTR (het CTR) mice (C57BL/6J background) with a 50% deletion of CTR were obtained from Drs. R. A. Davey and J. D. Zajac (Department of Medicine, Austin Health, University of Melbourne, Heidelberg, Victoria, Australia). Mice were housed individually under standard laboratory conditions (12/12-h light/dark cycle, lights on at 0600 h) with a room temperature of 21° C. Water and food were available ad libitum unless otherwise indicated. All tests were performed during the light phase between 0900 and 1600 h in accordance with institutional guidelines. The mice were 3 months old at the onset of testing.
A microcannula was stereotaxically inserted into the right cerebral ventricle (0.12 right lateral and 0.06 posterior to bregma, 3 mm deep) of isofluorane-anesthetized mice, and connected to an osmotic pump (Alzet; model 2004) implanted subcutaneously on the back of the mouse. The pump infused a solution of either aCSF or AC253 in aCSF into the ventricle at a rate of […] to yield an estimated concentration of 1 μM AC253 in the mouse CSF at equilibrium based upon the known CSF dynamics in the mouse brain (Di Pardo et al., 2012). The pump reservoir was replaced every 28 days for a total of 5-6 months. Animals were monitored on a daily basis for signs of treatment-related toxicity, such as poor grooming, lethargy, loss of bodyweight, and abnormal behavior. […]
The MWM apparatus consisted of a 2 m circular blue plastic pool filled with water (24-25° C.), which was rendered opaque by the addition of non-toxic white paint. […] The behavior of a mouse was recorded by a video camera connected to a video tracking system (HVS Image 2100, HVS Image, Buckingham, UK).
The pool was surrounded by a white curtain, and a mouse was released facing the wall at points (N, E, S, W) which were chosen semi-randomly. […] Memory was evaluated in probe trial, administered on day 8 as the first trial of the day. […] Memory for the platform location was expressed as the percent of time spent in TQ.

[2] = test system: APP, CTR, RAMP3, synapsin 1, synaptophysin, Iba1 in TgCRND8 mice brains; test: Western blot of brain homogenates after 5 months icv AC253; format: in vivo, mouse
Experimental: A microcannula was stereotaxically inserted into the right cerebral ventricle (0.12 right lateral and 0.06 posterior to bregma, 3 mm deep) of isofluorane-anesthetized mice, and connected to an osmotic pump (Alzet; model 2004) implanted subcutaneously on the back of the mouse. The pump infused a solution of either aCSF or AC253 in aCSF into the ventricle at a rate of […] to yield an estimated concentration of 1 μM AC253 in the mouse CSF at equilibrium based upon the known CSF dynamics in the mouse brain (Di Pardo et al., 2012). The pump reservoir was replaced every 28 days for a total of 5-6 months. Animals were monitored on a daily basis for signs of treatment-related toxicity, such as poor grooming, lethargy, loss of bodyweight, and abnormal behavior. After completion of medication and behavioral tests, all mice were killed with an overdose of isoflourane anesthetic, perfused transcardially with saline, and the brains were harvested. The left hemisphere per animal was frozen for biochemical analysis (Western blot, ELISA), and the right hemisphere retained for histological analysis.
Frozen brain tissues were homogenized in cold RIPA buffer with protease inhibitors and proteins were isolated and measured using BCA assay (BioRad, Mississauga, ON, Canada). Proteins were loaded at 50 μg per lane on a 12% polyacrylamide gel for CTR, RAMP3, NeuN, synapsin1, phospho-synapsin, and Iba1, or 4-20% polyacrylamide gradient gel (BioRad) for APP. Proteins were transferred to nitrocellulose membrane, and blocked with LiCOR blocking buffer. Blots were incubated with primary antibodies overnight at 4° C. on a shaker. Primary antibody used for CTR (1:1000 rabbit; Thermo Scientific), RAMP3 (1:1000 rabbit; Santa Cruz Biotechnology), 6E10 for APP (1:5000 mouse; 6E10; Covance), NeuN (1:1000, rabbit, Abcam), synapsin-1 (1:1000 rabbit, Abcam), synaptophysin (1:1000, rabbit, Abcam), phosphosynapsin (1:1000, rabbit, Abcam), Iba1 (1:1000, rabbit, Wako), β-tubulin (1:1000, rabbit, Cell Signaling Technology, Inc.) and β-actin (1:10000 mouse, Sigma-Aldrich). IRDye 800CW goat anti-rabbit and IRDye 680CW goat anti-mouse were used as secondary antibodies. Blots were imaged using LiCor Odyssey image system.

CC(C)C[C@H](NC(=O)[C@H](CCC(=O)O)NC(=O)[C@H](CCC(N)=O)NC(=O)[C@@H](N)CO)C(=O)N[C@@H](Cc1c[nH]cn1)C(=O)N[C@@H](CCCNC(=N)N)C(=O)N[C@@H](CC(C)C)C(=O)N[C@@H](CCC(N)=O)C(=O)N[C@H](C(=O)N[C@@H](Cc1ccc(O)cc1)C(=O)N1CCC[C@H]1C(=O)N[C@@H](CCCNC(=N)N)C(N)=O)[C@@H](C)O [R5] (H-SQELHRLQTYPR-NH2; N-terminus assumed)
brain permeability, imaging of the intact brain ([1]; 0.1 mmol ip, 2 hr post-injection, tested alongside Davlintide): marked brain permeability
brain permeability compared to AC253 ([1]; 2 hr post-ip injection, wild-type mice): marked increase in brain permeability

CC(C)C[C@H](NC(=O)[C@H](CCCNC(=N)N)NC(=O)CNC(=O)[C@@H](N)CC(C)C)C(=O)N[C@@H](CO)C(=O)N[C@@H](CCC(N)=O)C(=O)N[C@@H](CCC(=O)O)C(=O)N[C@@H](CC(C)C)C(=O)N[C@@H](Cc1c[nH]cn1)C(=O)N[C@@H](CCCNC(=N)N)C(=O)N[C@@H](CC(C)C)C(=O)N[C@@H](CCC(N)=O)C(=O)N[C@H](C(=O)N[C@@H](Cc1ccc(O)cc1)C(=O)N1CCC[C@H]1C(=O)N[C@@H](CCCNC(=N)N)C(=O)N[C@H](C(=O)N[C@@H](CC(N)=O)C(=O)N[C@H](C(=O)NCC(=O)N[C@@H](CO)C(=O)N[C@@H](CC(N)=O)C(=O)N[C@H](C(=O)N[C@@H](Cc1ccc(O)cc1)C(N)=O)[C@@H](C)O)[C@@H](C)O)[C@@H](C)O)[C@@H](C)O [AC253]
latencies to locate the hidden platform (MWM) (TgCRND8 AD mouse model; TgCRND8 mice at 8 months of age, after 5 months of icv treatment, vs littermates receiving CSF): marked improvement in latencies to locate the hidden platform
memory in probe trials for location of the target quadrant (TgCRND8 AD mouse model; TgCRND8 mice, 8 months of age): enhanced and persistent memory in probe trials
memory deficits in MWM, Wt controls (TgCRND8 AD mouse model; wild-type littermate controls, icv AC253 or CSF, 8 months of age): no memory deficits
amylin receptor (CTR, RAMP3 proteins) expression levels in the brain ([2]; Tg AC253 vs Tg CSF): no noticeable difference
increase in expression level of synapsin 1 ([2]; Tg AC253 vs Tg CSF controls): 40%
increase in expression level of synaptophysin ([2]; Tg AC253 vs Tg CSF controls): 30%
APP expression (Western blot) ([2]; Tg AC253 vs Tg CSF, 5 months icv): no significant difference
reduction of expression levels of Iba-1 (microglial marker) ([2]; Tg-AC253 vs Tg-CSF): 50%
